Patent US7138361B2, “Herbicidal heterocycles” (E. I. du Pont de Nemours and Company, priority 2000, dated 2006)

Legend:
Assay type in all cases: in vivo
[1] = tested on: Surinam grass (Brachiaria decumbens); test: Test B postemergence; conditions: 13 to 15 days
How it was run: (§1)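 Seeds were planted and sprayed preemergence with test chemical in a non-phytotoxic solvent mixture containing surfactant; postemergence plants (2 to 18 cm, 1- to 4-leaf stage) received the same formulation. Greenhouse hold 13 to 15 days, then visual rating versus untreated controls on a 0–100 scale (0 no effect, 100 complete control).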

[2] = tested on: blackgrass (Alopecurus myosuroides); test: Test B postemergence; conditions: 13 to 15 days
How it was run: as §1

[3] = tested on: cocklebur (Xanthium strumarium); test: Test B postemergence; conditions: 13 to 15 days
How it was run: as §1

[4] = tested on: crabgrass (Digitaria sanguinalis); test: Test B postemergence; conditions: 13 to 15 days
How it was run: as §1

[5] = tested on: giant foxtail (Setaria faberii); test: Test B postemergence; conditions: 13 to 15 days
How it was run: as §1

[6] = tested on: lambsquarters (Chenopodium album); test: Test B postemergence; conditions: 13 to 15 days
How it was run: as §1

[7] = tested on: morning glory (Ipomoea hederacea); test: Test B postemergence; conditions: 13 to 15 days
How it was run: as §1

[8] = tested on: pigweed (Amaranthus retroflexus); test: Test B postemergence; conditions: 13 to 15 days
How it was run: as §1

[9] = tested on: velvetleaf (Abutilon theophrasti); test: Test B postemergence; conditions: 13 to 15 days
How it was run: as §1

[10] = tested on: barnyardgrass (Echinochloa crus-galli); test: Test B flooded paddy test; conditions: Rate 1000 g/ha, scale of 0 to 100 where 0 is no effect and 100 is complete control, visually evaluated after 13 to 15 days
How it was run: (§2)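 Visual rating on a 0–100 scale, where 100 is complete control, made after 13 to 15 days in a greenhouse by comparison with untreated controls. Species treated in the flooded paddy were at the 2-leaf stage: barnyardgrass, duck salad, smallflower flatsedge and rice.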

[11] = tested on: duck salad (Heteranthera limosa); test: Test B flooded paddy test; conditions: Rate 1000 g/ha, scale of 0 to 100 where 0 is no effect and 100 is complete control, visually evaluated after 13 to 15 days
How it was run: as §2

rice (Oryza saliva) = test: Test B flooded paddy test; conditions: Rate 1000 g/ha, scale of 0 to 100 where 0 is no effect and 100 is complete control, visually evaluated after 13 to 15 days
How it was run: as §2

[12] = tested on: smallflower flatsedge (Cyperus difformis); test: Test B flooded paddy test; conditions: Rate 1000 g/ha, scale of 0 to 100 where 0 is no effect and 100 is complete control, visually evaluated after 13 to 15 days
How it was run: as §2

Sunflower = test: Test C preemergence; conditions: scale 0 to 100
kochia (Kochia scoparia) = test: Test C postemergence
How it was run: (§3)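 Pre- and postemergence treatments used a non-phytotoxic solvent/surfactant formulation; post-treated plants measured 2 to 18 cm. Greenhouse hold 12–14 d; % control estimated visually relative to controls.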

[13] = tested on: lambsquarters (Chenopodium album); test: Test C postemergence
How it was run: as §3

[14] = tested on: pigweed (Amaranthus retroflexus); test: Test C postemergence
How it was run: as §3

[15] = Rate 125 g/ha, scale 0 (no effect) to 100 (complete control)
[16] = Rate 500 g/ha, scale 0 to 100, 0 is no effect, 100 is complete control
[17] = Rate 125 g/ha, scale 0 to 100, 0 no effect, 100 complete control
[18] = Rate 250 g/ha, scale 0 to 100 (0 no effect, 100 complete control)
[19] = Rate 500 g/ha, scale 0 to 100 (0 no effect, 100 complete control)

SMILES | Plant response rating, Surinam grass [1, 15] | Plant response rating, Surinam grass [1, 16] | Plant response rating, Blackgrass [2, 15] | Plant response rating, Blackgrass [2, 16] | Plant response rating, Cocklebur [3, 15] | Plant response rating, Cocklebur [3, 16] | Plant response rating, Crabgrass [4, 15] | Plant response rating, Crabgrass [4, 16] | Plant response rating, Foxtail, Giant [5, 15] | Plant response rating, Foxtail, Giant [5, 16] | Plant response rating, Lambsquarters [6, 16] | Plant response rating, Morningglory [7, 16] | Plant response rating, Pigweed [8, 16] | Plant response rating, Velvetleaf [9, 16] | Plant response rating, Barnyardgrass [10] | Plant response rating, Ducksalad [11] | Plant response rating, Rice (rice (Oryza saliva)) | Plant response rating, Flatsedge [12] | Plant response rating, Lambsquarters [6, 15] | Plant response rating, Morningglory [7, 15] | further results
CC(C)(C)c1ccn(C2CCN(c3cccc(SC(F)(F)F)c3)C2=O)n1 (centres unmarked) [Compound 93] | 0 | 0 | 0 | 0 | 30 | 50 | 0 | 0 | 0 | 0 | 80 | 10 | 20 | 10 | 100 | 100 | 50 | 100 | – | – | Plant response rating, Sunflower (Sunflower; Rate 62 g/ha): 0
CCC(CC)c1ccn(C2SCN(c3cccc(C(F)(F)F)c3)C2=O)n1 (centres unmarked) [Compound 25] | 0 | 40 | 0 | 0 | 60 | 70 | 60 | 90 | 20 | 80 | 100 | 100 | 100 | 20 | 100 | 100 | 90 | 100 | 100 | 90 | Plant response rating, Pigweed [8, 15]: 70; Plant response rating, Velvetleaf [9, 15]: 0; Plant response rating, Kochia (kochia (Kochia scoparia); [17]): 70; Plant response rating, Kochia (kochia (Kochia scoparia); [18]): 70; Plant response rating, Kochia (kochia (Kochia scoparia); [19]): 70; Plant response rating, Lambsquarters [13, 17]: 90; Plant response rating, Lambsquarters [13, 18]: 100; Plant response rating, Lambsquarters [13, 19]: 100; Plant response rating, Pigweed [14, 17]: 90; Plant response rating, Pigweed [14, 18]: 100; Plant response rating, Pigweed [14, 19]: 100; Plant response rating, Sunflower (Sunflower; Rate 31 g/ha): 0
CCC(CC)c1ccn(C2SCN(c3cccc(C(F)(F)F)c3)C2=O)n1 (centres unmarked) [Compound 21] | 0 | 0 | 0 | 0 | 70 | 80 | 30 | 70 | 20 | 60 | 100 | 80 | 90 | 60 | 100 | 100 | 90 | 100 | 100 | 70 | Plant response rating, Pigweed [8, 15]: 70; Plant response rating, Velvetleaf [9, 15]: 20; Plant response rating, Kochia (kochia (Kochia scoparia); Rate 31 g/ha, scale 0 to 100): 30; Plant response rating, Kochia (kochia (Kochia scoparia); [17]): 40; Plant response rating, Lambsquarters ([13]; Rate 31 g/ha, scale 0 to 100): 70; Plant response rating, Lambsquarters [13, 17]: 80; Plant response rating, Pigweed ([14]; Rate 31 g/ha, scale 0 to 100): 50; Plant response rating, Pigweed [14, 17]: 70; Plant response rating, Sunflower (Sunflower; Rate 31 g/ha): 20
CCC(C)c1ccn(C2SCN(c3cccc(C(F)(F)F)c3)C2=O)n1 (centres unmarked) [Compound 20] | 0 | 0 | 0 | 0 | 80 | 90 | 20 | 80 | 50 | 90 | 90 | 60 | 90 | 20 | 100 | 100 | 100 | 100 | 90 | 60 | Plant response rating, Pigweed [8, 15]: 90; Plant response rating, Velvetleaf [9, 15]: 10; Plant response rating, Kochia (kochia (Kochia scoparia); [17]): 70; Plant response rating, Kochia (kochia (Kochia scoparia); [18]): 70; Plant response rating, Lambsquarters [13, 17]: 70; Plant response rating, Lambsquarters [13, 18]: 80; Plant response rating, Pigweed [14, 17]: 70; Plant response rating, Pigweed [14, 18]: 80
CC(C)(C)c1ccn(C2CCN(c3ccc(Cl)c(Cl)c3)C2=O)n1 (centres unmarked) [Compound 34] | 0 | 0 | 0 | 0 | 0 | 0 | 0 | 0 | 0 | 0 | 100 | 0 | 90 | 0 | 100 | 100 | 30 | 100 | 90 | 0 | Plant response rating, Pigweed [8, 15]: 90; Plant response rating, Velvetleaf [9, 15]: 0; Plant response rating, Sunflower (Sunflower; Rate 31 g/ha): 0
